Experimental data published in PubChem BioAssay (NCI).
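All cell lines were grown in 96-well plates and treated with compound for 48 hours. GI50 = concentration required for 50% inhibition of growth. TGI marks complete inhibition of growth.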

What was measured:
Assay in all cases: inhibition of tumour cell growth, NCI panel, 48 h
LOX IMVI melanoma = test system: LOX IMVI melanoma
MCF7 breast = test system: MCF7 breast
MDA-N = test system: MDA-N
UO-31 renal = test system: UO-31 renal
SK-MEL-5 melanoma = test system: SK-MEL-5 melanoma
K-562 leukemia = test system: K-562 leukemia
SF-268 CNS = test system: SF-268 CNS
HS 578T breast = test system: HS 578T breast
SNB-75 CNS = test system: SNB-75 CNS
OVCAR-3 ovarian = test system: OVCAR-3 ovarian

Row | Compound | TGI (LOX IMVI melanoma) | TGI (MCF7 breast) | TGI (MDA-N) | TGI (UO-31 renal) | TGI (SK-MEL-5 melanoma) | TGI (K-562 leukemia) | TGI (SF-268 CNS) | TGI (HS 578T breast) | TGI (SNB-75 CNS) | TGI (OVCAR-3 ovarian) | GI50 (OVCAR-3 ovarian) | GI50 (LOX IMVI melanoma) | GI50 (MCF7 breast) | GI50 (UO-31 renal) | GI50 (SK-MEL-5 melanoma) | GI50 (K-562 leukemia) | GI50 (SF-268 CNS) | GI50 (HS 578T breast) | GI50 (SNB-75 CNS)
1 | NC(=O)c1nnsc1NC=O | > 100 µM | > 100 µM | > 100 µM | > 100 µM | > 100 µM | > 100 µM | > 100 µM | > 100 µM | > 100 µM |  |  |  |  |  |  |  |  |  | 
2 | CC(C)C(=O)/C=C/c1ccc(Cl)c(Cl)c1 |  |  |  | 27.2 µM | 28.8 µM | 72.2 µM | 40.4 µM |  |  | 27.6 µM |  |  |  |  |  |  |  |  | 
3 | O=[N+]([O-])c1ccc(Cl)cc1N/N=C/c1cccc2cccnc12 |  | > 100 µM | > 100 µM | > 100 µM | > 100 µM | > 100 µM | > 100 µM | > 100 µM | > 100 µM | > 100 µM |  |  |  |  |  |  |  |  | 
4 | CCOC(=O)CSc1[nH]c(NC(=S)Nc2ccccc2)c(C(N)=O)c1C(N)=O | > 10 µM | > 10 µM | > 10 µM |  | > 10 µM | > 10 µM | > 10 µM |  | > 10 µM |  |  |  |  |  |  |  |  |  | 
5 | C=C(C)[C@@H]1CCC2=C[C@H](CC(C)=CC3=CC(C)=C(O3)[C@@H]1OC)OC2=O |  | > 100 µM | > 100 µM | > 100 µM | > 100 µM | > 100 µM | > 100 µM | > 100 µM | > 100 µM | > 100 µM |  |  |  |  |  |  |  |  | 
6 | CCOP(=O)(OCC)C1=NC=CC=CC1n1c(-c2ccccc2)nn(CC)c1=O (stereo not given) | > 100 µM |  |  |  | > 100 µM |  | > 100 µM |  |  | > 100 µM |  |  |  |  |  |  |  |  | 
7 | Cc1nnc(-n2c(O)cc(=O)n(-c3ccccc3)c2=S)nc1/C=C/c1ccc(N(C)C)cc1 | 17.5 µM | > 40.9 µM | > 100 µM | 19.9 µM | 21.9 µM | 49.9 µM | > 53.8 µM | 56.3 µM | 21.1 µM |  |  |  |  |  |  |  |  |  | 
8 | Oc1ccc(C#CCOc2ccccc2)cc1CNCCN(Cc1ccccn1)Cc1ccccn1 | 2.79 µM | 4.43 µM |  | 2.5 µM | 2.84 µM | 13.8 µM | 4.29 µM | 6.14 µM | 4.13 µM | 3.04 µM | 1.47 µM | 1.25 µM | 1.07 µM | 1.02 µM | 1.49 µM | 2.49 µM | 1.37 µM | 1.69 µM | 1.24 µM
9 | c1ccc(N=C2SC3=NCCN3C2=Nc2ccccc2)cc1 |  | 24.9 µM | 41.2 µM | 26.4 µM | 28.9 µM | > 100 µM |  | > 100 µM | 43.3 µM | 36 µM |  |  |  |  |  |  |  |  | 
10 | CC(=O)OCC1=C(C)C[C@H]([C@@H](COC(C)=O)C2CCC3C4C[C@H]5O[C@]56CC=CC(=O)[C@]6(C)C4CC[C@@]32C)OC1=O (stereo not given in full) | 0.552 µM | 2.09 µM | 0.675 µM | 2.96 µM | 0.875 µM |  | 6.78 µM | 17.8 µM | 6.09 µM | 0.553 µM |  |  |  |  |  |  |  |  | 
11 | Nc1ccc(Oc2ccc(C34CC5CC6C3CC3CC4C(C5)C6(c4ccc(Oc5ccc(N)c(O)c5)cc4)C3)cc2)cc1O | > 34.9 µM | > 42.3 µM | 14.8 µM | 11.2 µM | 9.24 µM | > 54.8 µM | 29.2 µM | 80.5 µM |  | 8.28 µM |  |  |  |  |  |  |  |  | 
12 | Oc1cccc(-c2cn3cc(C(F)(F)F)ccc3n2)c1 | > 100 µM | > 100 µM | > 100 µM | > 100 µM | 56.5 µM | > 100 µM | > 100 µM | > 100 µM |  | 86.7 µM |  |  |  |  |  |  |  |  | 
13 | CC(=O)/C=C(\O)c1[nH]c(C(=O)O)cc1C1CCN(Cc2ccccc2)C1=O (stereo not given) |  | 65.7 µM | 33.8 µM | 38.5 µM | 42.9 µM | 95.1 µM | 49.5 µM | > 100 µM | 63.1 µM | 54.9 µM |  |  |  |  |  |  |  |  | 
14 | COc1ccccc1NC(=O)O/N=C(/Cl)C(C)C | 6.75 µM |  | 26.8 µM | 32.8 µM | 24.1 µM | 10.9 µM | 32.5 µM | 67.9 µM | 27.1 µM | 16.3 µM |  |  |  |  |  |  |  |  | 
15 | O=C1C(NCCN2CCOCC2)=C(Cl)C(=O)c2ncccc21 | 0.928 µM | 1.14 µM | 0.346 µM | 2.33 µM | 1.1 µM |  | 3.37 µM | 2.87 µM | 2.35 µM | 5.48 µM |  |  |  |  |  |  |  |  | 
16 | CC1(C)CC2(C)CC1CC2NC(=O)CCN1CCOCC1 (stereo not given) |  | > 100 µM | > 100 µM | > 100 µM | > 100 µM | > 100 µM | > 100 µM | > 100 µM | > 100 µM | > 100 µM |  |  |  |  |  |  |  |  | 
17 | COc1cc(C2c3cc4c(cc3[C@@H](Nc3cccc([N+](=O)[O-])c3)C3COC(=O)[C@H]23)OCO4)cc(OC)c1O (stereo not given in full) | 19.6 µM | > 100 µM |  | > 29 µM | 7.87 µM | > 40.5 µM | > 51.5 µM |  | > 22.7 µM | 33.2 µM |  |  |  |  |  |  |  |  | 
18 | O=C(N/N=C\c1ccccc1)Nc1cccc2ccccc12 | > 100 µM |  | > 100 µM | > 100 µM | 24.4 µM | > 100 µM | > 100 µM | 66.7 µM | > 100 µM | > 100 µM |  |  |  |  |  |  |  |  | 
19 | NC1CC(=O)c2sccc21 (stereo not given) |  | > 100 µM |  | > 100 µM | > 100 µM | > 100 µM | > 100 µM | > 100 µM | > 100 µM | > 100 µM |  |  |  |  |  |  |  |  | 
20 | CCN(CC)CCCC(C)NC(=O)c1ccc2c(c1)C(=O)c1ccccc1C2=O (stereo not given) | 39.6 µM |  |  | 69 µM | 28.4 µM | 48.4 µM | 80.4 µM |  | > 86.9 µM | 32.2 µM |  |  |  |  |  |  |  |  | 
21 | C#CC(O)/C=C/C(O)CCCC(O)CC#CC(O)C#CC(O)CCCC(O)/C=C/CCCC(=O)CCCCCCCCCCCCCCCC(O)C(O)C#CC(=O)O (stereo not given) | 20.8 µM | > 50 µM | > 50 µM | 22.1 µM | > 50 µM | > 50 µM | > 50 µM | > 50 µM | > 50 µM |  |  |  |  |  |  |  |  |  | 
22 | O=C1CCCC2=C1CC1=C(CCCC1=O)N2c1ccccc1 | > 100 µM | > 100 µM |  | > 100 µM | > 100 µM | > 100 µM | > 100 µM | > 100 µM | > 100 µM | > 100 µM |  |  |  |  |  |  |  |  | 
23 | N=c1c2c(=S)n(-c3ccccc3)c(=S)n(-c3ccccc3)c2nc(SCCN2CCOCC2)n1-c1ccccc1 | 3.71 µM | > 100 µM | 4.99 µM |  | 6.66 µM | 4.18 µM | 4.41 µM | > 100 µM | 4.54 µM | 3.3 µM |  |  |  |  |  |  |  |  | 
